What follows are compounds tested against T1, OX2 (Homo sapiens, UniProt O43614) (assay: Measurement of orexin receptor-binding ability ([125I]-OX-A, cell membranes, OX2)). Conditions: OX2 (IC50) nM, membranes of recombinant CHO cells expressing OX2, 0.2 nM [125I]-OX-A.
T1 sequence (O43614 1-444): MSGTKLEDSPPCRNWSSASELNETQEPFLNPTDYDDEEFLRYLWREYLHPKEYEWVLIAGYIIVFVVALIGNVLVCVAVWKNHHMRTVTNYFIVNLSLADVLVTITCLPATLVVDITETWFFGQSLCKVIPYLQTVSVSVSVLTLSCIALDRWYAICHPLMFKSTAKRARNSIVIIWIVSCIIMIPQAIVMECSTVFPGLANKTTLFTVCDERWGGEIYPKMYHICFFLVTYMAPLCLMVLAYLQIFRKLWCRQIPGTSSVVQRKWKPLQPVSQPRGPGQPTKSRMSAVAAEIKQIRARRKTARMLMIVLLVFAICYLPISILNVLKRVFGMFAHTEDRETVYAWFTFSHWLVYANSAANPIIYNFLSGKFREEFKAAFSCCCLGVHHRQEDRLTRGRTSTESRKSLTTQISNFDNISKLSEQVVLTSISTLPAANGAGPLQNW
Set-up: expressed in transfected cells; host or cells: CHO cells (membrane preparation)
Procedure: 1. Measurement of Orexin Receptor-Binding Ability
The assay was carried out using a 96-well Wheat Germ Agglutinin Flash Plate (PerkinElmer). The volume in a single assay well was 100 ul, and the composition of the reaction solution was as follows:
25 mM HEPES (pH 7.5), 1 mM CaCl2, 4.5 mM MgCl2, 0.5% BSA (bovine serum albumin), 0.1% sodium azide, 0.05% Tween-20, and 0.2% DMSO.
Cell membranes were prepared from recombinant CHO cells that expressed OX2 or OX1. The cell membranes were used in an amount of 5 μg protein/assay. […] Finally, the radioactivity of each well was measured using a scintillation counter (TopCount, PerkinElmer).
Work on `COc1cccc([C@]2(COc3cnc(C)nc3C)C[C@H]2C(=O)Nc2ccc(F)cc2)c1` [Example 187] yielded an IC50 of 16 nM. `Cc1ncc(OC[C@@]2(c3ccc(F)cc3)C[C@H]2C(=O)Nc2cccc(F)c2)c(C)n1` [Example 107] was tested, and the IC50 was 41 nM. `COCc1nc(C)ncc1OCC1(c2cccc(Cl)c2)CC1C(=O)Nc1ccc(F)cn1` (centres unmarked) [Example 222] showed an IC50 of 68 nM. In the case of `COc1cc([C@]2(COc3cnc(C)nc3C)C[C@H]2C(=O)Nc2ccc(F)cn2)ccc1F` [Example 314], the IC50 is reported as 173 nM. With `Cc1ncc(OC[C@@]2(c3cccc(C#N)c3)C[C@H]2C(=O)Nc2ccc(F)cn2)c(C)n1` [Example 116] the IC50 was 14 nM.

Same assay, conditions: membranes of recombinant CHO cells expressing OX2, 0.2 nM [125I]-OX-A; read-out: OX2 (IC50)
`COc1cc(F)cc(C2(COc3cnc(C)nc3C)CC2C(=O)Nc2ccccn2)c1` (centres unmarked) [Example 251] showed an IC50 of 30 nM. `COCc1nc(C)ncc1OC[C@@]1(c2ccc(F)cc2)C[C@H]1C(=O)Nc1ccccn1` [Example 206] was tested, and the IC50 was 27 nM. In the case of `COc1cc([C@]2(COc3cnc(C)nc3C)C[C@H]2C(=O)Nc2cc(C)c(F)cn2)ccc1F` [Example 258], the IC50 is reported as greater than 60 nM. With `Cc1ncc(OC[C@@]2(c3ccccc3)C[C@H]2C(=O)Nc2ccnc(C(F)(F)F)c2)c(C)n1` [Example 44] the IC50 was 26 nM. Compound `COc1cc(F)cc([C@]2(COc3cnc(C)nc3C)C[C@H]2C(=O)Nc2ccc(Cl)cn2)c1` [Example 255] has an IC50 of 27 nM. Compound `COc1cc([C@]2(COc3cnc(C)nc3C)C[C@H]2C(=O)Nc2ccc(Cl)cn2)ccc1F` [Example 257] has an IC50 of 84 nM. With `COCCc1nc(C)ncc1OC[C@@]1(c2cccc(F)c2)C[C@H]1C(=O)Nc1ccccn1` [Example 228] the IC50 was 45 nM. Work on `COCc1nc(C)ncc1OC[C@@]1(c2ccccc2)C[C@H]1C(=O)Nc1cccc(F)c1` [Example 148] yielded an IC50 of 20 nM. Work on `COCc1nc(C)ncc1OCC1(c2cccc(Cl)c2)CC1C(=O)Nc1ccc(C#N)cn1` (centres unmarked) [Example 227] yielded an IC50 of 14 nM. Compound `COCc1nc(C)ncc1OC[C@@]1(c2cc(F)cc(F)c2)C[C@H]1C(=O)Nc1cc(C)c(F)cn1` [Example 220] has an IC50 of 21 nM. `Cc1ncc(OC[C@@]2(c3cc(F)cc(F)c3)C[C@H]2C(=O)Nc2cc(F)ccc2F)c(C)n1` [Example 136] was tested, and the IC50 was 15 nM. Work on `COCc1nc(C)ncc1OC[C@@]1(c2ccccc2)C[C@H]1C(=O)Nc1ccc(F)cc1` [Example 149, (1R,2S)-N-(4-fluorophenyl)-2-{[(4-methoxymethyl-2-methylpyrimidin-5-yl)oxy]methyl}-2-phenylcyclopropanecarboxamide] yielded an IC50 of 10 nM. With `COCc1nc(C)ncc1OC[C@@]1(c2ccc(F)cc2)C[C@H]1C(=O)Nc1cc(F)ccc1F` [Example 210] the IC50 was greater than 60 nM. Compound `COCc1nc(C)ncc1OC[C@@]1(c2cccc(Cl)c2)C[C@H]1C(=O)Nc1cc(C)c(F)cn1` [Example 226, (1R,2S)-2-(3-chlorophenyl)-N-(5-fluoro-4-methylpyridin-2-yl)-2-{[(4-methoxymethyl-2-methylpyrimidin-5-yl)oxy]methyl}cyclopropanecarboxamide] has an IC50 of 7 nM. `CCc1nc(C)ncc1OC[C@@]1(c2ccc(F)cc2)C[C@H]1C(=O)Nc1cccc(F)c1` [Example 249] showed an IC50 of 17 nM. Compound `COCc1nc(C)ncc1OC[C@@]1(c2cc(F)cc(OC)c2)C[C@H]1C(=O)Nc1ccc(F)cc1` [Example 231, (1R,2S)-2-(3-fluoro-5-methoxyphenyl)-N-(4-fluorophenyl)-2-{[(4-methoxymethyl-2-methylpyrimidin-5-yl)oxy]methyl}cyclopropanecarboxamide] has an IC50 of 7 nM. `COCc1nc(C)ncc1OC[C@@]1(c2ccc(F)c(F)c2)C[C@H]1C(=O)Nc1cccc(F)c1F` [Example 217] gave an IC50 of 21 nM. `COc1cccc([C@]2(COc3cnc(C)nc3C)C[C@H]2C(=O)Nc2ccccn2)c1` [Example 188] showed an IC50 of 61 nM. In the case of `COCc1nc(C)ncc1OC[C@@]1(c2ccccc2)C[C@H]1C(=O)Nc1cc(F)ccc1F` [Example 147], the IC50 is reported as 69 nM. Work on `Cc1ncc(OC[C@@]2(c3ccc(F)c(F)c3)C[C@H]2C(=O)Nc2ccc(F)c(F)c2)c(C)n1` [Example 170, (1R,2S)-N,2-bis(3,4-difluorophenyl)-2-{[(2,4-dimethylpyrimidin-5-yl)oxy]methyl}cyclopropanecarboxamide] yielded an IC50 of 7 nM. Work on `Cc1ncc(OC[C@@]2(c3cc(F)cc(F)c3)C[C@H]2c2nc3ncc(Cl)cc3[nH]2)c(C)n1` [Example 307] yielded an IC50 of 33 nM. Compound `COCc1nc(C)ncc1OCC1(c2cccc(Cl)c2)CC1C(=O)Nc1ccc(F)cc1` (centres unmarked) [Example 224] has an IC50 of 27 nM. With `COCc1nc(C)ncc1OC[C@@]1(c2ccc(F)c(OC)c2)C[C@H]1C(=O)Nc1ccc(F)cc1` [Example 237] the IC50 was 31 nM. For `CCc1nc(C)ncc1OC[C@@]1(c2ccccc2)C[C@H]1C(=O)Nc1cncc(OC)c1` [Example 123], the IC50 was 29 nM. Compound `COCc1nc(C)ncc1OC[C@@]1(c2ccc(F)c(F)c2)C[C@H]1C(=O)Nc1ccc(F)cc1F` [Example 216, (1R,2S)-N-(2,4-difluorophenyl)-2-(3,4-difluorophenyl)-2-{[(4-methoxymethyl-2-methylpyrimidin-5-yl)oxy]methyl}cyclopropanecarboxamide] has an IC50 of 7 nM. Work on `COc1cc(F)cc(C2(COc3cnc(C)nc3C)CC2C(=O)Nc2ccc(F)cc2)c1` (centres unmarked) [Example 252] yielded an IC50 of 18 nM. `COc1cc(F)cc(C2(COc3cnc(C)nc3C)CC2C(=O)Nc2ccc(C#N)cn2)c1` (centres unmarked) [Example 253] gave an IC50 of 41 nM. Compound `COCc1nc(C)ncc1OC[C@@]1(c2ccccc2)C[C@H]1C(=O)Nc1cc(C)c(F)cn1` [Example 145, (1R,2S)-N-(5-fluoro-4-methylpyridin-2-yl)-2-{[(4-methoxymethyl-2-methylpyrimidin-5-yl)oxy]methyl}-2-phenylcyclopropanecarboxamide] has an IC50 of 9 nM. Work on `COCc1nc(C)ncc1OC[C@@]1(c2ccccc2)C[C@H]1C(=O)Nc1ccc(F)cc1F` [Example 146] yielded an IC50 of 37 nM. In the case of `COCc1nc(C)ncc1OC[C@@]1(c2ccc(F)c(F)c2)C[C@H]1C(=O)Nc1ccc(F)c(F)c1` [Example 214, (1R,2S)-N,2-bis(3,4-difluorophenyl)-2-{[(4-methoxymethyl-2-methylpyrimidin-5-yl)oxy]methyl}cyclopropanecarboxamide], the IC50 is reported as 7 nM. Compound `Cc1ncc(OC[C@@]2(c3ccccc3)C[C@H]2c2nc3cnccc3[nH]2)c(C)n1` [Example 304] has an IC50 of 90 nM. In the case of `COCc1nc(C)ncc1OC[C@@]1(c2cc(F)cc(OC)c2)C[C@H]1C(=O)Nc1ccc(F)cn1` [Example 233, (1R,2S)-2-(3-fluoro-5-methoxyphenyl)-N-(5-fluoropyridin-2-yl)-2-[(4-methoxymethyl-2-methylpyrimidin-5-yl)oxymethyl]cyclopropanecarboxamide], the IC50 is reported as 6 nM. For `COCc1nc(C)ncc1OC[C@@]1(c2ccc(F)c(F)c2)C[C@H]1C(=O)Nc1cc(F)ccc1F` [Example 215], the IC50 was 12 nM. For `COCc1nc(C)ncc1OC[C@@]1(c2ccccc2)C[C@H]1C(=O)Nc1ccc(F)c(F)c1` [Example 150, (1R,2S)-N-(3,4-difluorophenyl)-2-{[(4-methoxymethyl-2-methylpyrimidin-5-yl)oxy]methyl}-2-phenylcyclopropanecarboxamide], the IC50 was 10 nM. In the case of `CCc1nc(C)ncc1OC[C@@]1(c2ccc(F)cc2)C[C@H]1C(=O)Nc1ccc(F)cc1` [Example 250], the IC50 is reported as 14 nM. For `CCc1nc(C)ncc1OC[C@@]1(c2ccccc2)C[C@H]1C(=O)Nc1ccc(F)cc1` [Example 124], the IC50 was 31 nM. For `COCCc1nc(C)ncc1OC[C@@]1(c2cccc(F)c2)C[C@H]1C(=O)Nc1ccc(F)cc1` [Example 230], the IC50 was 16 nM. For `COc1cc([C@]2(COc3cnc(C)nc3C)C[C@H]2C(=O)Nc2ccccn2)ccc1F` [Example 259], the IC50 was greater than 60 nM. Work on `COCc1nc(C)ncc1OC[C@@]1(c2ccccc2)C[C@H]1C(=O)Nc1cc(Cl)ccn1` [Example 143] yielded an IC50 of 14 nM. With `COCc1nc(C)ncc1OC[C@@]1(c2ccc(F)c(OC)c2)C[C@H]1C(=O)Nc1cc(C)c(F)cn1` [Example 239, (1R,2S)-2-(4-fluoro-3-methoxyphenyl)-N-(5-fluoro-4-methylpyridin-2-yl)-2-{[(4-methoxymethyl-2-methylpyrimidin-5-yl)oxy]methyl}cyclopropanecarboxamide] the IC50 was 7 nM. In the case of `COc1cc([C@]2(COc3cnc(C)nc3C)C[C@H]2C(=O)Nc2ccc(F)cc2)ccc1F` [Example 315], the IC50 is reported as 208 nM. `COCc1nc(C)ncc1OC[C@@]1(c2cc(F)cc(OC)c2)C[C@H]1C(=O)Nc1ccccn1` [Example 235, (1R,2S)-2-(3-fluoro-5-methoxyphenyl)-2-[(4-methoxymethyl-2-methylpyrimidin-5-yl)oxymethyl]-N-(pyridin-2-yl)cyclopropanecarboxamide] was tested, and the IC50 was 6 nM. `Cc1ncc(OC[C@@]2(c3cc(F)cc(F)c3)C[C@H]2c2nc3ncccc3[nH]2)c(C)n1` [Example 308] was tested, and the IC50 was 31 nM. With `COCc1nc(C)ncc1OC[C@@]1(c2ccc(F)c(OC)c2)C[C@H]1C(=O)Nc1ccc(F)c(F)c1` [Example 238] the IC50 was 15 nM. Compound `Cc1ncc(OC[C@@]2(c3cccc(C#N)c3)C[C@H]2C(=O)Nc2ccc(F)cc2)c(C)n1` [Example 115] has an IC50 of 21 nM.

From US8268848B2, “Cyclopropane compound” (Eisai R&D Management Co., Ltd., priority 2010, dated 2012)
